This is an account of results in ChEMBL document CHEMBL2424597, “Diarylheptanoids with inhibitory effects on melanogenesis from the rhizomes of Curcuma comosa in B16 melanoma cells” (Bioorg Med Chem Lett, 2013).

The structures appear in SMILES notation.

Series [1] addresses T1, Tyrosinase (Agaricus bisporus) (UniProt O42713).
T1 sequence (whole entry): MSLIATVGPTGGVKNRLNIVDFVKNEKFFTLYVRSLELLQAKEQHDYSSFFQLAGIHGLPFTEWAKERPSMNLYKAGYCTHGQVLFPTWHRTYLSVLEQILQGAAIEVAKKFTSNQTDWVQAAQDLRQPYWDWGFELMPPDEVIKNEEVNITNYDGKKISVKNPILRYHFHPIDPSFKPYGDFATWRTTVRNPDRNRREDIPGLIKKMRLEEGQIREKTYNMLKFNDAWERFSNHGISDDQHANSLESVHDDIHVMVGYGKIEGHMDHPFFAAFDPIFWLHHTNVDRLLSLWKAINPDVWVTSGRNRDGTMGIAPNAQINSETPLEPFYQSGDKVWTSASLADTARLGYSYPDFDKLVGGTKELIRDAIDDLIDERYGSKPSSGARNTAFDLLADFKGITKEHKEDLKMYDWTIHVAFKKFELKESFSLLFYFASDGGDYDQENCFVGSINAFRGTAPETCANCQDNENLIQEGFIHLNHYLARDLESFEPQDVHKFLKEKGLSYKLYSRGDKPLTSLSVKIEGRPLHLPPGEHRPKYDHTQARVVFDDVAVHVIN
In words: Inhibition of mushroom tyrosinase at 10 uM.

A short description of series [2]: Cytotoxicity against mouse B16-4A5 cells assessed as cell viability at 10 uM after 70 hrs by WST-8 assay in presence of theophylline. The settings on record: read-out: Activity. Type of series: cell-based. Background: Tetrazolium dyes change colour on reduction, which living cells bring about.
Series [3] in a line: Cytotoxicity against mouse B16-4A5 cells assessed as cell viability at 3 uM after 70 hrs by WST-8 assay in presence of theophylline. Type of series: cell-based. Particulars: read-out: Activity.
Series [4] is described as follows: Antimelanogenic activity in mouse B16-4A5 cells assessed as inhibition of theophylline-induced melanin production after 72 hrs by spectrophotometry relative to control. Type of series: functional, cell-based. The settings on record: B16-4A5, 72 h.
Series [5] is described as follows: Antimelanogenic activity in mouse B16-4A5 cells assessed as inhibition of theophylline-induced melanin production at 10 uM after 72 hrs by spectrophotometry relative to control. Particulars: B16-4A5, 72 h. It is filed as functional.
Series [6] is described as follows: Antimelanogenic activity in mouse B16-4A5 cells assessed as inhibition of theophylline-induced melanin production at 3 uM after 72 hrs by spectrophotometry relative to control. It is filed as functional. Particulars: B16-4A5, 72 h.
Series [7] is described as follows: Antimelanogenic activity in mouse B16-4A5 cells assessed as inhibition of theophylline-induced melanin production at 1 uM after 72 hrs by spectrophotometry relative to control. Particulars: B16-4A5, 72 h. It is filed as functional.
Series [8] is described as follows: Antimelanogenic activity in mouse B16-4A5 cells assessed as inhibition of theophylline-induced melanin production at 0.3 uM after 72 hrs by spectrophotometry relative to control. Type of series: functional. Particulars: B16-4A5, 72 h.
Series [9] in a line: Antimelanogenic activity in mouse B16-4A5 cells assessed as inhibition of theophylline-induced melanin production at 0.1 uM after 72 hrs by spectrophotometry relative to control. The settings on record: B16-4A5, 72 h. It is filed as functional.

Regarding `CC(=O)O[C@H](CCc1ccc(O)cc1)C[C@@H](CCc1ccc(O)c(O)c1)OC(C)=O`, in series [1], the inhibition was below 17%. For the same compound, in series [2], the viability at 70 h, 10 µM stood at 92.3%. For the same compound, in series [3], the viability at 70 h, 3 µM worked out at 95.2%. The IC50 in [4] was above 10000 nM. Further, in series [5], the inhibition at 10 µM is 27.3%. Besides, the inhibition at 3 µM in series [6] amounted to 7.3%. Moreover, the inhibition at 1 µM in [7] is 8.1%. Moreover, the inhibition at 0.3 µM in [8] turned out to be 6.3%. Moreover, the inhibition at 0.1 µM in [9] was 3.6%.
For the compound `CC(=O)O[C@H](CCc1ccc(O)c(O)c1)C[C@H](O)CCc1ccc(O)c(O)c1`, the inhibition in series [1] was below 17%. The viability at 70 h, 10 µM in [2] is 92.3%. Further, the viability at 70 h, 3 µM in [3] amounted to 95.2%. In addition, in [5], the inhibition at 10 µM is 5.5%. Moreover, the inhibition at 3 µM in [6] worked out at 4.5%. In [7], the inhibition at 1 µM was -5.7%. Besides, the inhibition at 0.3 µM in [8] was -9.9%. For the same compound, the inhibition at 0.1 µM in series [9] is -1.6%.
As to `COc1cc(CC[C@@H](O)CC/C=C/c2ccc(O)cc2)ccc1O`, in series [1], the inhibition was below 17%. The viability at 70 h, 10 µM in series [2] is 76%. Besides, the viability at 70 h, 3 µM in series [3] stood at 84.6%. Moreover, the IC50 in [4] was above 10000 nM. In series [5], the inhibition at 10 µM was 37.8%. In series [6], the inhibition at 3 µM amounted to 27.2%. For the same compound, the inhibition at 1 µM in [7] stood at 28.9%. Further, in series [8], the inhibition at 0.3 µM stood at 8.9%. Also, the inhibition at 0.1 µM in series [9] amounted to 13.7%.
Regarding `CC(=O)O[C@H](CCc1ccc(O)c(O)c1)C[C@H](O)CCc1ccc(O)cc1`, in [1], the inhibition was below 17%. Moreover, in [2], the viability at 70 h, 10 µM was 92.3%. In addition, the viability at 70 h, 3 µM in series [3] worked out at 95.2%. In series [4], the IC50 stood at 4910 nM. In addition, the inhibition at 10 µM in series [5] amounted to 59.9%. In [6], the inhibition at 3 µM is 21.8%. In addition, the inhibition at 1 µM in [7] was 27.3%. In addition, the inhibition at 0.3 µM in [8] amounted to 15.1%. Further, the inhibition at 0.1 µM in [9] is 15.4%.
For the compound `COc1cc(CC[C@H](O)C[C@H](O)CCc2cc(OC)c(O)c(OC)c2)ccc1O`, in series [1], the inhibition was below 17%. For the same compound, the viability at 70 h, 10 µM in [2] is 92.3%. Further, in [3], the viability at 70 h, 3 µM amounted to 95.2%. The IC50 in series [4] was 3000 nM. Further, the inhibition at 10 µM in series [5] is 34.4%. For the same compound, the inhibition at 3 µM in series [6] amounted to 50.3%. The inhibition at 1 µM in series [7] was determined as 38.4%. Further, the inhibition at 0.3 µM in series [8] was determined as 43.2%. Also, in [9], the inhibition at 0.1 µM is 35.4%.
For `Oc1ccc(/C=C/CC[C@@H](O)CCc2ccc(O)cc2)cc1`, the inhibition in series [1] came to 25.5%. Moreover, in [2], the viability at 70 h, 10 µM came to 93%. Also, in series [3], the viability at 70 h, 3 µM turned out to be 95.2%. For the same compound, the IC50 in [4] turned out to be 360 nM. In addition, in [5], the inhibition at 10 µM worked out at 90.5%. In series [6], the inhibition at 3 µM was determined as 79.3%. Besides, the inhibition at 1 µM in series [7] was determined as 67.3%. Besides, the inhibition at 0.3 µM in [8] amounted to 47.5%. Also, in series [9], the inhibition at 0.1 µM was determined as 27.7%.
For the compound `O=C(/C=C/C=C/c1ccc(O)cc1)CCc1ccc(O)cc1`, in series [1], the inhibition came out at 34.3%. Also, the viability at 70 h, 10 µM in series [2] was 92.3%. Besides, the viability at 70 h, 3 µM in series [3] stood at 95.2%. For the same compound, the IC50 in series [4] was determined as 1990 nM. In series [5], the inhibition at 10 µM was 68.4%. For the same compound, the inhibition at 3 µM in [6] is 41.9%. Also, the inhibition at 1 µM in series [7] was determined as 53.4%. The inhibition at 0.3 µM in series [8] is 31.7%. The inhibition at 0.1 µM in series [9] worked out at 25.4%.
Turning to `COc1cc(CC[C@@H](O)C[C@@H](O)CCc2ccc(O)cc2)cc(OC)c1O`, the inhibition in [1] is below 17%. Moreover, in series [2], the viability at 70 h, 10 µM came out at 92.3%. In addition, in series [3], the viability at 70 h, 3 µM was found to be 95.2%. Also, in [5], the inhibition at 10 µM stood at 7.2%. The inhibition at 3 µM in [6] stood at 25%. Besides, the inhibition at 1 µM in [7] was determined as 23.1%. Moreover, the inhibition at 0.3 µM in series [8] came to 23.2%. Also, the inhibition at 0.1 µM in series [9] amounted to 11.5%.
Consider `Oc1ccc(CC[C@H](O)C[C@H](O)CCc2ccc(O)c(O)c2)cc1`, for which, in series [1], the inhibition was below 17%. In series [2], the viability at 70 h, 10 µM came out at 71.6%. In addition, in series [3], the viability at 70 h, 3 µM is above 91.9%. The inhibition at 3 µM in series [6] was -23.7%. The inhibition at 1 µM in series [7] is -10.9%. Further, the inhibition at 0.3 µM in series [8] was -3.7%. Besides, in series [9], the inhibition at 0.1 µM is -0.7%.
Turning to `Oc1ccc(CC[C@@H](O)C[C@H](O)CCc2ccc(O)c(O)c2)cc1`, in [1], the inhibition is below 17%. Moreover, the viability at 70 h, 10 µM in series [2] was determined as 92.3%. For the same compound, the viability at 70 h, 3 µM in series [3] is 95.2%. Also, in series [5], the inhibition at 10 µM is -18.9%. Moreover, the inhibition at 3 µM in [6] was found to be 0.1%. In series [7], the inhibition at 1 µM is -22.7%. Moreover, the inhibition at 0.3 µM in [8] was 8.9%. The inhibition at 0.1 µM in series [9] came out at 7%.
Turning to `O=C(CCc1ccc(O)cc1)C[C@@H](O)CCc1ccc(O)cc1`, the inhibition in series [1] was below 17%.
Regarding `O=C(CC/C=C/c1ccc(O)cc1)CCc1ccc(O)cc1`, in series [1], the inhibition is below 17%. Also, the viability at 70 h, 10 µM in series [2] was 71.6%. Moreover, the viability at 70 h, 3 µM in series [3] is above 91.9%. For the same compound, the IC50 in [4] amounted to 1240 nM. For the same compound, the inhibition at 10 µM in series [5] was determined as 57.1%. The inhibition at 3 µM in series [6] turned out to be 61.4%. For the same compound, the inhibition at 1 µM in series [7] is 44.9%. The inhibition at 0.3 µM in series [8] was found to be 29.9%. For the same compound, the inhibition at 0.1 µM in series [9] came out at 21.2%.
Take `Oc1ccc(CC[C@@H](O)C[C@H](O)CCc2ccc(O)cc2)cc1` [(+)-HANNOKINOL]: the inhibition in [1] was below 17%. In addition, in [2], the viability at 70 h, 10 µM is 92.3%. In addition, the viability at 70 h, 3 µM in series [3] is 95.2%. The IC50 in series [4] is above 10000 nM. The inhibition at 10 µM in [5] was 21.9%. Further, the inhibition at 3 µM in [6] stood at 23.1%. Moreover, the inhibition at 1 µM in series [7] is 15.7%. In addition, the inhibition at 0.3 µM in series [8] stood at 20.3%. In series [9], the inhibition at 0.1 µM is 22%.
Consider `O=C(/C=C/C=C/c1ccc(O)c(O)c1)CCc1ccc(O)cc1`, for which the inhibition in series [1] is below 17%. Moreover, the viability at 70 h, 10 µM in series [2] was determined as 92.3%. The viability at 70 h, 3 µM in series [3] came out at 95.2%. Also, the inhibition at 10 µM in series [5] worked out at 16.3%. The inhibition at 3 µM in [6] worked out at 23.4%. Besides, the inhibition at 1 µM in [7] was 30.5%. Besides, the inhibition at 0.3 µM in [8] turned out to be 37.8%. Besides, the inhibition at 0.1 µM in [9] was 27.8%.
`COc1cc(CC[C@@H](O)CC(=O)CCc2ccc(O)cc2)ccc1O`: the inhibition in [1] is below 17%. For the same compound, in series [2], the viability at 70 h, 10 µM was found to be 92.3%. In series [3], the viability at 70 h, 3 µM amounted to 95.2%. For the same compound, in series [5], the inhibition at 10 µM is -24.9%. In addition, the inhibition at 3 µM in series [6] came to 4.4%. The inhibition at 1 µM in series [7] is 16.6%. The inhibition at 0.3 µM in series [8] is -11.9%. The inhibition at 0.1 µM in series [9] turned out to be 4%.

One may read the inhibition as the drop in the measured response relative to a control, in per cent. Broadly, the IC50 is the point on the concentration scale where inhibition reaches its midpoint.
